“Also recorded” adds a separate entry of the source.
How the values were obtained:
[1] = tested on: Human CEM leukemia cells; test: Live/Dead Viability/Cytotoxicity flow cytometry assay; format: cell-based; conditions: overnight incubation, then DEM 3 hours
Experimental: Cell viability and cytotoxicity were determined by simultaneous staining live and dead cells using a two-color fluorescence assay, the Live/Dead® Viability/Cytotoxicity Kit (Molecular Probes). This assay is used to measure two recognized parameters of cell viability, intracellular esterase activity and plasma integrity. The membrane-impermeant DNA dye ethidium homodimer-1 (EthD-1) was used to identify dead cells whose plasma membrane integrity was disrupted. The membrane-permeant dye calcein-AM was used to label live cells. It penetrates into the cells where it is metabolized by cytoplasmic esterases and becomes a fluorescent but membrane-impermeant probe which is retained in viable cells. Human CEM leukemia cells were incubated overnight in RPMI medium (control) and in the presence of test compound and then treated with DEM for 3 hours. Cells were stained with 0.2 μM calcein-AM and 0.4 μM EthD-1. After 15 minutes, flow cytometry analysis was carried out using excitation at 488 nm. The green-fluorescent (539 nm) FL1-H channel, live-cell population appears in the lower right quadrant and the red-fluorescent (585 nm) FL2-H channel dead-cell population appears in the upper left quadrant (FIG. 11). In each analysis, 10,000 events were recorded. Results obtained were verified in three independent experiments.

[2] = tested on: CEM cells; test: Reactive oxygen species (ROS) assay, DCFH-DA, DEM-treated cells; format: cell-based, human
[3] = C11-BODIPY581/591 oxidation lipid peroxidation assay in liposomes; conditions: for quenching of lipid peroxidation (retention of C11-BODIPY581/591 fluorescence): 10 mM AAPH, phospholipid liposomes, phosphate buffer, 40° C.
Experimental: To overcome the problem of spectral overlap using cis-parinaric acid, a fluorescence assay for lipid peroxidation using a lipophilic probe belonging to the BODIPY class of fluorescent dyes was used. C11-BODIPY^581/591 (4,4-difluoro-5(4-phenyl-1,3-butadienyl)-4-bora-3a,4a-diaza-s-indacene-3-propionic acid) fluorescence shifts from red to green upon oxidation. C11-BODIPY^581/591 (Molecular Probes, Eugene, Oreg., USA) stock solution concentrations were determined by measuring the absorption of C11-BODIPY^581/591 at 582 nm using a molar extinction coefficient of 140,000 mol^−1 cm^−1(R. P. Haugland, (1999) Handbook of Fluorescent Probes and Research Chemicals, Molecular Probes, Inc., Eugene, Oreg.). The lipid peroxidation inducer 2,2′-Azobis (2-amidino-propane dihydrochloride) (AAPH) and the antioxidant compound α-tocopherol were obtained from Sigma (St. Louis, Mo., USA). Phospholipid bilayers were prepared from 1-stearoyl-2-oleoyl-phosphatidylcholine (SOPC) and 1,2-dilinoleoyl-phosphatidylcholine (DLPC) and were purchased from Avanti® polar lipids, INC (Alabaster, Ala., USA).
Phosphotidylcholine (PC) liposomes were prepared as described before (Guey-Shuang et al. (1982) Lipids. 17, 403-413). Briefly, DLPC (25 mg) and SOPC (25 mg) were dissolved in chloroform and the solvent was removed by nitrogen evaporation (˜2 hours to give a thin film of PC in a round bottom flask. The lipid film was hydrated with 50 mL of 10 mM Tris-HCl (pH 7.4), 100 mM KCl, shaken and sonicated for 15 seconds. The liposomes obtained were filtered several times through 0.2 μM membrane filter.
C11 BODIPY^581/591 was incorporated into liposomes and oxidized by peroxyl radicals derived from the decomposition of AAPH in presence and absence of the compounds. […] Liposomes were pre-incubated for 10 min with 200 nM C11 BODIPY^581/591 to allow their incorporation into the lipid phase of the liposomes. After the addition of AAPH (10 mM) the decay of red fluorescence was followed at λ exc=570 nm, λ em=600 nm. Relative fluorescence units were normalized to 100% intensity. Results obtained were verified by repeating experiments N=3 independent experiments.

Structure (SMILES) | maintaining cell viability (Live/Dead kit, flow cytometry) [1] | protection against ROS production (DCF fluorescence) ([2]; compound 5 μM, 5 mM DEM) | protection against ROS production (DCF fluorescence) ([2]; compound 1 μM, 5 mM DEM) | suppression of ROS production (DCF fluorescence) ([2]; pretreatment 0.5, 1 or 5 μM, DEM) | quenching of lipid peroxidation (retention of C11-BODIPY581/591 fluorescence) [3] | protection against lipid peroxidation ([3]; compound 15 μM, AAPH, liposomes) | suppression of ROS (DCF fluorescence) ([2]; 1 μM, pretreatment 1, 3 or 6 hours, 5 mM DEM) | protection against ROS production (DCF fluorescence) ([2]; 5 μM, pretreatment 4 or 24 h)
Cc1c(C)c2c(c(C)c1O)CC[C@@](C)(CCC[C@H](C)CCC[C@H](C)CCCC(C)C)O2 [α-tocopherol, reference compound] | effective in maintaining cell viability following treatment with DEM | ineffective |  |  |  |  |  | 
Cc1nc(N(C)C)nc(CCCCCCCCCCO)c1O [Compound A, 2-N,N-dimethylamino-5-hydroxy-4-methyl-6-(10-hydroxydecyl)-pyrimidine] |  | significantly more effective in blocking diethylmaleate-induced ROS production compared to idebenone or its reduced form (Idebenol); also recorded: protected the cells | complete protection | more effective than idebenone at all tested concentrations; also recorded: more effective than idebenone in suppressing ROS in a dose-dependent fashion | more effective in preventing lipid peroxidation than idebenone and its reduced form (Idebenol); also recorded: much more effective than idebenone and its reduced form in preventing lipid peroxidation | complete protection |  | 
Cc1nc2c(c(CC[C@](C)(O)CCC[C@H](C)CCC[C@H](C)CCCC(C)C)c1O)CCN2C [Compound C, 4-((3R,7R,11R)-3-hydroxy-3,7,11,15-tetramethylhexadecyl)-1,6-dimethyl-2,3-dihydro-1H-pyrrolo[2,3-b]pyridine-5-ol] | both effective in maintaining cell viability following treatment with DEM, with compound C being somewhat more effective; also recorded: superiority of compound C | more effective in protecting glutathione depleted CEM cells than α-tocopherol; also recorded: protected the cells |  |  | prevent lipid peroxidation in a concentration-dependent fashion with scavenging activity much higher than α-tocopherol; also recorded: prevents lipid peroxidation in a concentration-dependent fashion with scavenging activity much greater than that of α-tocopherol and compound C redox core; also recorded: much more effective than α-tocopherol in quenching lipid peroxidation |  | clearly more effective than α-tocopherol in suppressing ROS | better protection against ROS production than α-tocopherol after a 4-hour preincubation
COC1=C(OC)C(=O)C(CCCCCCCCCCO)=C(C)C1=O [idebenone, reference compound] |  | only limited effect |  |  |  |  |  | 
